Read-outs that look alike come from different tables or passages of the source.
Tests used:
[1] = test system: Erysiphe graminis f.sp. tritici; test: Erysiphe graminis f.sp. tritici (wheat powdery mildew) leaf disk assay; type: in vivo; conditions: Blumeria graminis, foliar, 96 h, preventive, four days after inoculation, read-out: control of fungal infection, Erysiphe graminis fsp. tritici
[2] = test system: Puccinia recondita f.sp. tritici; test: Puccinia recondita f.sp. tritici (wheat brown rust) leaf disk assay; type: in vivo; conditions: foliar, 216 h, preventive, nine days after inoculation, read-out: control of fungal infection, Puccinia recondita f.sp. tritici
Pyricularia oryzae = test: whole plant or invertebrate; type: in vivo; conditions: foliar, 96 h
Phytophthora infestans = test: whole plant or invertebrate; type: in vivo; conditions: foliar, 96 h, read-out: control of fungal infection, Phytophthora infestans
Plasmopara viticola = Plasmopara viticola (downy mildew of grapevine) leaf disk assay; type: in vivo; conditions: foliar, 168 h, preventive, seven days after inoculation, read-out: control of fungal infection, Plasmopara viticola
Aedes aegypti = Aedes aegypti (Yellow fever mosquito) larvae test; type: in vivo; conditions: 48 h
Plutella xylostella = Plutella xylostella (Diamond back moth) artificial diet test; conditions: 120 h, read-out: control of Plutella xylostella
[3] = read-out: control of fungal infection, Pyricularia oryzae (at least 80% list)
[4] = read-out: control of fungal infection, Pyricularia oryzae (at least 60% list)

Structure (SMILES) | pest or weed control at 200 ppm [1] [%] | pest or weed control at 200 ppm [2] [%] | pest or weed control at 200 ppm (Phytophthora infestans) [%] | pest or weed control at 200 ppm (Plasmopara viticola) [%] | other results
c1cnc(OC2C[C@H]3CC[C@@H](C2)N3c2ncnc3sccc23)nc1 (stereo partly drawn) [Example 1.2] | ≥ 80 | ≥ 80 | ≥ 80 |  | pest or weed control at 200 ppm (Pyricularia oryzae; [3]): ≥ 80%
Fc1cccc(OC2C[C@H]3CC[C@@H](C2)N3c2ncnc3sccc23)c1 (stereo partly drawn) [Example 1.15] |  | ≥ 80 |  | ≥ 80 | 
CSc1nc(C)cc(OC2C[C@H]3CC[C@@H](C2)N3c2ncnc3sccc23)n1 (stereo partly drawn) [Example 1.77] | ≥ 80 |  |  | ≥ 80 | 
CCC(=O)c1ccc(OC2C[C@H]3CC[C@@H](C2)N3c2ncnc3sccc23)cc1 (stereo partly drawn) [Example 1.256] |  | ≥ 80 | ≥ 80 |  | pest or weed control at 2 ppm (Aedes aegypti): ≥ 80%
FC(F)(F)c1ccc(OC2C[C@H]3CC[C@@H](C2)N3c2ncnc3sccc23)nc1 (stereo partly drawn) [Example 2.61] | ≥ 80 | ≥ 80 | ≥ 80 |  | pest or weed control at 200 ppm (Pyricularia oryzae; [4]): ≥ 60%
Cc1nsc(Oc2cccc(OC3C[C@H]4CC[C@@H](C3)N4c3ncnc4scc(C)c34)c2)n1 (stereo partly drawn) [Example 2.73] | ≥ 80 |  | ≥ 80 |  | 
FC(F)(F)c1cccc(OC2C[C@H]3CC[C@@H](C2)N3c2ncnc3ccccc23)n1 (stereo partly drawn) [Example 2.83] | ≥ 80 | ≥ 80 | ≥ 80 |  | 
CCCNC(=O)C=C1CC2CCC(C1)N2c1ncnc(CC)c1Cl [Example 3.5] |  | ≥ 80 |  | ≥ 80 | 
O=C(C=C1CC2CCC(C1)N2c1ncnc2sccc12)Nc1ccc(Cl)cc1 [Example 3.17] |  |  |  | ≥ 80 | 
Cc1cc(OCC=C2CC3CCC(C2)N3c2ncnc3sccc23)nc(C)n1 [Example 3.18] |  | ≥ 80 |  | ≥ 80 | pest or weed control at 2 ppm (Aedes aegypti): ≥ 80%
CC(NC(=O)C=C1CC2CCC(C1)N2c1ncnc2sccc12)c1ccccc1 (stereo not drawn) [Example 3.22] |  | ≥ 80 |  | ≥ 80 | 
CCc1ncnc(N2C3CCC2CC(=NOCc2ccccc2C)C3)c1Cl [Example 5.10] | ≥ 80 | ≥ 80 | ≥ 80 |  | pest or weed control at 200 ppm (Plutella xylostella): ≥ 80%
CCc1ncnc(N2C3CCC2CC(=NOCc2nc(C)cc(Cl)n2)C3)c1Cl [Example 5.13] | ≥ 80 |  |  | ≥ 80 | 
CCc1ncnc(N2C3CCC2CC(=NOCc2ccccc2OC)C3)c1Cl [Example 5.23] | ≥ 80 | ≥ 80 |  | ≥ 80 | 
CCc1ncnc(N2C3CCC2CC(=NOCC(=O)OC(C)(C)C)C3)c1Cl [Example 5.24] | ≥ 80 |  | ≥ 80 |  | 
CCc1ncnc(N2C3CCC2CC(=NOCc2cccc(F)c2)C3)c1Cl [Example 5.48] | ≥ 80 | ≥ 80 | ≥ 80 |  | pest or weed control at 2 ppm (Aedes aegypti): ≥ 80%
CCc1ncnc(N2C3CCC2CC(=NOCc2ccc(NC(C)=O)cc2)C3)c1Cl [Example 5.51] | ≥ 80 | ≥ 80 | ≥ 80 |  | 
CCc1ncnc(N2C3CCC2CC(=NOCc2ccc(F)c(F)c2F)C3)c1Cl [Example 5.81] | ≥ 80 | ≥ 80 | ≥ 80 |  | pest or weed control at 2 ppm (Aedes aegypti): ≥ 80%; pest or weed control at 200 ppm (Pyricularia oryzae; [4]): ≥ 60%
CCc1ncnc(N2C3CCC2CC(=NOCc2c(C)noc2C)C3)c1Cl [Example 5.110] |  | ≥ 80 | ≥ 80 |  | 
CCc1ncnc(N2C3CCC2CC(=NOc2nc(Cl)ccc2C(F)(F)F)C3)c1Cl [Example 5.117] |  |  |  | ≥ 80 | 
c1nc(N2C3CCC2CC(=NOCCC2CCCCC2)C3)c2ccsc2n1 [Example 5.136] |  |  |  | ≥ 80 | 
c1ccc(CCON=C2CC3CCC(C2)N3c2ncnc3sccc23)cc1 [Example 5.140] | ≥ 80 | ≥ 80 | ≥ 80 |  | pest or weed control at 200 ppm (Pyricularia oryzae; [4]): ≥ 60%; pest or weed control at 200 ppm (Pyricularia oryzae; [3]): ≥ 80%

Source: patent publication US20100331348A1, “TROPANE DERIVATIVES USEFUL AS PESTICIDES” (SYNGENTA CROP PROTECTION, INC., priority 2007, published 2010)
